From ChEMBL document CHEMBL1127986, “Synthesis and Biological Evaluation of New Leukotriene Analogs” (Bioorg Med Chem Lett, 1994)
Calls of active or inactive are those of the source. The calls are words filed in the database; no cut-off is given here.

Key:
[1] = target: T1, Polyunsaturated fatty acid 5-lipoxygenase (Homo sapiens) (UniProt P09917); test: Inhibition of 5-lipoxygenase was evaluated in human polymorphonuclear leukocytes stimulated by calcium ionophore A-23187 for formation of LTB4 at 10 uM; format: cell-based
T1 sequence (whole entry): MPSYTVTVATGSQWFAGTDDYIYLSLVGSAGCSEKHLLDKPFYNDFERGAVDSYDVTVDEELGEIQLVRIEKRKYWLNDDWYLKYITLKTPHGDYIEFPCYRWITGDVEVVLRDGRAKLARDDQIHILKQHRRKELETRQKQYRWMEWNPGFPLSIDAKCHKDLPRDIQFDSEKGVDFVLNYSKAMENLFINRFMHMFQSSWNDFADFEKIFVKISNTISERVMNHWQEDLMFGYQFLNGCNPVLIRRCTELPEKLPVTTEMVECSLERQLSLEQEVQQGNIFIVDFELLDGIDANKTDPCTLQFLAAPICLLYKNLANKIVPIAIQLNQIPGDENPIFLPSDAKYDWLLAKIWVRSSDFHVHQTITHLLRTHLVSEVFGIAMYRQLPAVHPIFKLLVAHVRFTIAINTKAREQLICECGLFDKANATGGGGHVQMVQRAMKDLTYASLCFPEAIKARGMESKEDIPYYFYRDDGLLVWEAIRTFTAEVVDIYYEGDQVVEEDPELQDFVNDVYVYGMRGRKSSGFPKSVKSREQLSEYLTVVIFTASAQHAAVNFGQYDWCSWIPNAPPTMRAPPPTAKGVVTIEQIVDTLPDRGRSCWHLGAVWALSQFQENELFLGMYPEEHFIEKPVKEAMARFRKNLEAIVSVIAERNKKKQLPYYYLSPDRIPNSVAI

[2] = target: T1, Polyunsaturated fatty acid 5-lipoxygenase (Homo sapiens); test: Inhibition of 5-lipoxygenase was evaluated in human polymorphonuclear leukocytes stimulated by calcium ionophore A-23187 for formation of 5-HETE at 10 uM; format: cell-based
[3] = target: T2, Arachidonate 12-lipoxygenase (Rattus norvegicus) (UniProt Q02759); test: Inhibition of 12-lipoxygenase was evaluated in rat platelets stimulated by thrombin up to a concentration of 10 uM; NE means No effect
T2 sequence (whole entry): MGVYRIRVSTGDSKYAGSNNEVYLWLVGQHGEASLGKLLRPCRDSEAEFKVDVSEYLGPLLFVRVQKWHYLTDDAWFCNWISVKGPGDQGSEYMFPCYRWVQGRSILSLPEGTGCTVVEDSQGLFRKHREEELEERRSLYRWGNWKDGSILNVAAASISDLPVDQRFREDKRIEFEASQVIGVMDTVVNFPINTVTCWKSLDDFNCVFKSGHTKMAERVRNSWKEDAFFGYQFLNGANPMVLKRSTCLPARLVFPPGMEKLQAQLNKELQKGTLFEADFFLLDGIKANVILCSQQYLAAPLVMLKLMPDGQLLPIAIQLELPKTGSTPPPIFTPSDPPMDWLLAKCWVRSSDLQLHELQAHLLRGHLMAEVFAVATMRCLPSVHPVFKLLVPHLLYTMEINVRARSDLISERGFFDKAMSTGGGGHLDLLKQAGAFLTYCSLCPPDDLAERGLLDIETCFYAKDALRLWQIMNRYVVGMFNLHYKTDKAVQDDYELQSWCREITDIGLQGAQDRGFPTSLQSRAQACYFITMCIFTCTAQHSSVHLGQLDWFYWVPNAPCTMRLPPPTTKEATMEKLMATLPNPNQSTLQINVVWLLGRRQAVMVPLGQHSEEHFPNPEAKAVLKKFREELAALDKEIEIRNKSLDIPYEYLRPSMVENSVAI

[4] = target: Cyclooxygenase (Rattus norvegicus) (UniProt P35355+Q63921); test: Inhibition of cyclooxygenase was evaluated in rat platelets stimulated by thrombin up to a concentration of 10 uM; NE means No effect
[5] = target: T1, Polyunsaturated fatty acid 5-lipoxygenase (Homo sapiens); test: Inhibition of 5-lipoxygenase was evaluated in human polymorphonuclear leukocytes stimulated by calcium ionophore A-23187 for formation of LTB4 at 10 uM; NA means Inactive; format: cell-based
[6] = target: T1, Polyunsaturated fatty acid 5-lipoxygenase (Homo sapiens); test: Inhibition of 5-lipoxygenase was evaluated in human polymorphonuclear leukocytes stimulated by calcium ionophore A-23187 for formation of 5-HETE at 10 uM; NA means Inactive; format: cell-based
[7] = target: T3, Polyunsaturated fatty acid 5-lipoxygenase (Homo sapiens, UniProt P09917); test: Inhibition of 5-lipoxygenase was evaluated in human polymorphonuclear leukocytes stimulated by calcium ionophore A-23187 for formation of 5-HETE; NA means Not active; format: cell-based
T3 sequence (P09917 whole entry): T1 sequence (whole entry)

[8] = target: T3, Polyunsaturated fatty acid 5-lipoxygenase; test: Inhibition of 5-lipoxygenase was evaluated in human polymorphonuclear leukocytes stimulated by calcium ionophore A-23187 for formation of LTB4; NA means Not active; format: cell-based
[9] = target: T3, Polyunsaturated fatty acid 5-lipoxygenase; test: Inhibition of 5-lipoxygenase was evaluated in human polymorphonuclear leukocytes stimulated by calcium ionophore A-23187 for formation of LTB4; format: cell-based
[10] = target: T3, Polyunsaturated fatty acid 5-lipoxygenase; test: Inhibition of 5-lipoxygenase was evaluated in human polymorphonuclear leukocytes stimulated by calcium ionophore A-23187 for formation of 5-HETE; format: cell-based

Question: What does the source list for `CCCCC/C=C\C\C=C/C=C/C=C/C(O)CCC/C=N/OC` (centres undefined)?
Answer: inhibition [1]: 95%; inhibition [2]: 95%; Activity [3]: inactive; Activity [4]: inactive

Question: What does the source list for `CCCCC/C=C\C/C=C\C=C\C(O)CCC/C=N/O` (centres undefined)?
Answer: inhibition [1]: 60%; inhibition [2]: < 40%

Question: How did the inhibition [1] turn out when `CCCCC/C=C\C\C=C/C=C/C=C/C(O)CCCCC` (centres undefined) was run?
Answer: The inhibition was 95%.

Question: And the inhibition [2]?
Answer: The inhibition was 95%.

Question: Which inhibition [5] does the source give for `CCCCC/C=C\Cc1ccc(/C=C/C(O)CCC/C=N\O)cc1` (centres undefined) here?
Answer: Its inhibition is “inactive”.

Question: And the inhibition [6]?
Answer: The inhibition was “inactive”.

Question: And the Activity [3]?
Answer: Its Activity is “inactive”.

Question: And the Activity [4]?
Answer: Its Activity is “inactive”.

Question: What does the source list for `CCCCC/C=C\C\C=C/C=C/C=C/C(O)CC/C=N\O` (centres undefined)?
Answer: inhibition [1]: 95%; inhibition [2]: 95%; Activity [3]: inactive; Activity [4]: inactive

Question: For `CCCCCCCC\C=C/C=C/C=C/C(O)CCC/C=N/O` (centres undefined), which IC50 [7] is on record?
Answer: Its IC50 is “Not Active”.

Question: What about the IC50 [8] of the same compound?
Answer: Its IC50 is “Not Active”.

Question: Which results are given for `CCCCC/C=C\C\C=C/C=C/C=C/C(CCC/C=N/O)OC` (centres undefined)?
Answer: IC50 [7]: Not Active; Activity [3]: inactive; Activity [4]: inactive; IC50 [8]: Not Active

Question: How did the IC50 [9] turn out when `CCCCC/C=C\C\C=C/C=C/C=C/C(O)CCC/C=N/O` (racemic) was run?
Answer: The IC50 was 4.4 µM.

Question: What about the IC50 [10] of the same compound?
Answer: The IC50 was 5.4 µM.

Question: And the Activity [3]?
Answer: Its Activity is “inactive”.

Question: And the Activity [4]?
Answer: The Activity was “inactive”.

Question: For `CCCCC/C=C\C\C=C/C=C/C=C/[C@@H](O)CCC/C=N/O`, which IC50 [7] is on record?
Answer: Its IC50 is “Not Active”.

Question: And the Activity [3]?
Answer: Its Activity is “inactive”.

Question: And the Activity [4]?
Answer: The Activity was “inactive”.

Question: What about the IC50 [8] of the same compound?
Answer: The IC50 was “Not Active”.

Question: Which results are given for `CCCCC/C=C\C\C=C/C=C/C=C/[C@H](O)CCC/C=N/O`?
Answer: IC50 [9]: 3.3 µM; IC50 [10]: 2.8 µM; Activity [3]: inactive; Activity [4]: inactive
